Source: publication PMC3042376, “The elicitation of a systemic resistance by Pseudomonas putida BTP1 in tomato involves the stimulation of two lipoxygenase isoforms” (BMC Plant Biology, 2011)

Molecular target: T1, TomLOXF (Solanum lycopersicum, UniProt C0KKU8)
T1 construct: gene loxF; predicted chloroplast transit peptide (54 residues, ChloroP) excluded; N-terminal His tag of pET28-a kept; E. coli BL21; about 100 kDa; full precursor 903 residues; partially purified on nickel
T1 sequence (C0KKU8 55-902): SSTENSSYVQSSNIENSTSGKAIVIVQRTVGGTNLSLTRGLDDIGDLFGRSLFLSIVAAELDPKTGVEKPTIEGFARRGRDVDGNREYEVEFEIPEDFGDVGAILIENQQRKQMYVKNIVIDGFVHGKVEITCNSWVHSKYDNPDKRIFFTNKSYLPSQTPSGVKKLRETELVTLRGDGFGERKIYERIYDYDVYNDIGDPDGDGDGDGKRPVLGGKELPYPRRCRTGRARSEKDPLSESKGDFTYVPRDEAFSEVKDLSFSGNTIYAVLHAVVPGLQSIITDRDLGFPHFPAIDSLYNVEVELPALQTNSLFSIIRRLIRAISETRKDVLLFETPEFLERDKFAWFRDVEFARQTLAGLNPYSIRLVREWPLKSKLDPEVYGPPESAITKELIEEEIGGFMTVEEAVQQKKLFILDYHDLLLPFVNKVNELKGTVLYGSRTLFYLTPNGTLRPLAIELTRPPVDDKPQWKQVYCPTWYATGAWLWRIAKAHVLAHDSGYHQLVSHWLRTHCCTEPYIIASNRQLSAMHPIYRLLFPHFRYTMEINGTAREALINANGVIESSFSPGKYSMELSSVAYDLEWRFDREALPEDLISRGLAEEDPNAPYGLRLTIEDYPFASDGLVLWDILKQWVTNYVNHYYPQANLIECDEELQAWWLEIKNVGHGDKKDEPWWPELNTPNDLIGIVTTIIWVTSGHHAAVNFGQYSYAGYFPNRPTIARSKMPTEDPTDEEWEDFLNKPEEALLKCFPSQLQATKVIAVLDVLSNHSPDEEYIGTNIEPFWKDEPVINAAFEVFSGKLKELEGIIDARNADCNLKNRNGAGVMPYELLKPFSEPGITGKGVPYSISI
Test: hydroperoxide formation at […] nm; products by HPLC
Assay type: biochemical
Conditions: pH 6.0, room temperature, oxygenated phosphate buffer, partially purified enzyme

Row | SMILES | hydroperoxide formation at 234 nm; products by HPLC (product 13-HPOD, weaker substrate) | hydroperoxide formation at 234 nm; products by HPLC (product 13-HPOT, preferred substrate)
1 | CCCCC/C=C\C/C=C\CCCCCCCC(=O)O [C18:2, linoleic acid] | Partially-purified TOMLOXF showed a higher activity on linolenic acid than on linoleic acid | –
2 | CC/C=C\C/C=C\C/C=C\CCCCCCCC(=O)O [C18:3, linolenic acid] | – | Partially-purified TOMLOXF showed a higher activity on linolenic acid than on linoleic acid
